Laboratory results as given in US10253039B2, “Inhibitors of bacterial DNA gyrase with efficacy against gram-negative bacteria” (priority 2014, dated 2019).
Values after ≈ are worked out from the molar mass of the structure shown.

test system: E. coli BW25113; assay: MIC, microdilution in 96-well plates; assay type: cell-based; conditions: Escherichia coli, BW25113, B: E. coli BW25113; read-out: MIC
Protocol: (§1) A microdilution method in 96-well plates was used and the MIC protocol established by the Clinical Laboratory Standards Institute was followed. From a growing subculture, a 1:10000 inoculum of each strain in Luria-Bertani media was prepared and aliquoted 100 μL in 4 columns of wells, except for the top row wells, which contained 200 μL of inoculum. A solution of gyramide C2 was aliquoted into 3 of the wells containing 200 μL and DMSO was added to the 4th well. The liquid in each of wells was mixed with a multi-channel pipet and 100 μL was transferred to the next well and mixed. The 2-fold dilution was continued down the 96-well plate until 100 μL was left, which was discarded. The plates were incubated at 37° C. with shaking for 16-18 hours. The MIC was determined as the lowest concentration that inhibited growth and had no turbidity by visual inspection.
(§2) Minimum inhibitory concentrations of various gyramide compounds against 20 strains of bacteria were determined using the procedure described above.

| SMILES | MIC [µg/mL] |
| --- | --- |
| CSc1ccc(CN2CC[C@@H](NS(=O)(=O)c3cccc(C#N)c3)C2)cc1 [Compound 31] | > 8 |
| CSc1ccc(CN2CC[C@@H](NS(=O)(=O)c3cccc(C(F)(F)F)c3)C2)cc1 [Compound 86] | > 8 |
| N#Cc1cccc(S(=O)(=O)N[C@@H]2CCN(Cc3cn(-c4ccccc4)nn3)C2)c1 [Compound 124] | > 8 |
| O=S(=O)(N[C@@H]1CCN(Cc2ccc(-n3cccn3)cc2)C1)c1cccc(C(F)(F)F)c1 [Compound 35] | > 8 |
| O=S(=O)(N[C@@H]1CCN(Cc2ccc(-c3ccccc3)cc2)C1)c1cnc2ccsc2c1 [Compound 111] | > 8 |

test system: Edwardsiella tarda; assay: MIC, microdilution in 96-well plates; assay type: cell-based; conditions: D: Edwardsiella tarda
Protocol: as §1, §2

| SMILES | MIC [µg/mL] |
| --- | --- |
| CSc1ccc(CN2CC[C@@H](NS(=O)(=O)c3cccc(C#N)c3)C2)cc1 [Compound 31] | > 8 |
| CSc1ccc(CN2CC[C@@H](NS(=O)(=O)c3cccc(C(F)(F)F)c3)C2)cc1 [Compound 86] | > 8 |
| N#Cc1cccc(S(=O)(=O)N[C@@H]2CCN(Cc3cn(-c4ccccc4)nn3)C2)c1 [Compound 124] | > 8 |
| O=S(=O)(N[C@@H]1CCN(Cc2ccc(-n3cccn3)cc2)C1)c1cccc(C(F)(F)F)c1 [Compound 35] | > 8 |
| O=S(=O)(N[C@@H]1CCN(Cc2ccc(-c3ccccc3)cc2)C1)c1cnc2ccsc2c1 [Compound 111] | > 8 |

test system: Staphylococcus aureus subsp. aureus; assay: MIC, 20-strain panel; assay type: cell-based; conditions: H: Staphylococcus aureus subsp. aureus, read-out: MIC
Protocol: as §1, §2

| SMILES | MIC [µg/mL] |
| --- | --- |
| CSc1ccc(CN2CC[C@@H](NS(=O)(=O)c3cccc(C#N)c3)C2)cc1 [Compound 31] | > 8 |
| CSc1ccc(CN2CC[C@@H](NS(=O)(=O)c3cccc(C(F)(F)F)c3)C2)cc1 [Compound 86] | > 8 |
| N#Cc1cccc(S(=O)(=O)N[C@@H]2CCN(Cc3cn(-c4ccccc4)nn3)C2)c1 [Compound 124] | > 8 |
| O=S(=O)(N[C@@H]1CCN(Cc2ccc(-n3cccn3)cc2)C1)c1cccc(C(F)(F)F)c1 [Compound 35] | > 8 |
| O=S(=O)(N[C@@H]1CCN(Cc2ccc(-c3ccccc3)cc2)C1)c1cnc2ccsc2c1 [Compound 111] | > 8 |

test system: Streptococcus pyogenes; assay: MIC, 20-strain panel; assay type: cell-based; conditions: not given
Protocol: as §1, §2

| SMILES | MIC [µg/mL] |
| --- | --- |
| CSc1ccc(CN2CC[C@@H](NS(=O)(=O)c3cccc(C#N)c3)C2)cc1 [Compound 31] | > 8 |
| CSc1ccc(CN2CC[C@@H](NS(=O)(=O)c3cccc(C(F)(F)F)c3)C2)cc1 [Compound 86] | > 8 |
| N#Cc1cccc(S(=O)(=O)N[C@@H]2CCN(Cc3cn(-c4ccccc4)nn3)C2)c1 [Compound 124] | > 8 |
| O=S(=O)(N[C@@H]1CCN(Cc2ccc(-n3cccn3)cc2)C1)c1cccc(C(F)(F)F)c1 [Compound 35] | > 8 |
| O=S(=O)(N[C@@H]1CCN(Cc2ccc(-c3ccccc3)cc2)C1)c1cnc2ccsc2c1 [Compound 111] | > 8 |

test system: Staphylococcus epidermidis; assay: MIC, 20-strain panel; assay type: cell-based; conditions: not given
Protocol: as §1, §2

| SMILES | MIC [µg/mL] |
| --- | --- |
| CSc1ccc(CN2CC[C@@H](NS(=O)(=O)c3cccc(C#N)c3)C2)cc1 [Compound 31] | > 8 |
| CSc1ccc(CN2CC[C@@H](NS(=O)(=O)c3cccc(C(F)(F)F)c3)C2)cc1 [Compound 86] | > 8 |
| N#Cc1cccc(S(=O)(=O)N[C@@H]2CCN(Cc3cn(-c4ccccc4)nn3)C2)c1 [Compound 124] | > 8 |
| O=S(=O)(N[C@@H]1CCN(Cc2ccc(-n3cccn3)cc2)C1)c1cccc(C(F)(F)F)c1 [Compound 35] | > 8 |
| O=S(=O)(N[C@@H]1CCN(Cc2ccc(-c3ccccc3)cc2)C1)c1cnc2ccsc2c1 [Compound 111] | > 8 |

test system: Staphylococcus saprophyticus subsp. saprophyticus; assay: MIC, 20-strain panel; assay type: cell-based; conditions: not given
Protocol: as §1, §2

| SMILES | MIC [µg/mL] |
| --- | --- |
| CSc1ccc(CN2CC[C@@H](NS(=O)(=O)c3cccc(C#N)c3)C2)cc1 [Compound 31] | > 8 |
| CSc1ccc(CN2CC[C@@H](NS(=O)(=O)c3cccc(C(F)(F)F)c3)C2)cc1 [Compound 86] | > 8 |
| N#Cc1cccc(S(=O)(=O)N[C@@H]2CCN(Cc3cn(-c4ccccc4)nn3)C2)c1 [Compound 124] | > 8 |
| O=S(=O)(N[C@@H]1CCN(Cc2ccc(-n3cccn3)cc2)C1)c1cccc(C(F)(F)F)c1 [Compound 35] | > 8 |
| O=S(=O)(N[C@@H]1CCN(Cc2ccc(-c3ccccc3)cc2)C1)c1cnc2ccsc2c1 [Compound 111] | > 8 |

test system: Shigella flexneri; assay: MIC, 20-strain panel; assay type: cell-based; conditions: G: Shigella flexneri
Protocol: as §1, §2

| SMILES | MIC [µg/mL] |
| --- | --- |
| CSc1ccc(CN2CC[C@@H](NS(=O)(=O)c3cccc(C#N)c3)C2)cc1 [Compound 31] | > 8 |
| CSc1ccc(CN2CC[C@@H](NS(=O)(=O)c3cccc(C(F)(F)F)c3)C2)cc1 [Compound 86] | > 8 |
| N#Cc1cccc(S(=O)(=O)N[C@@H]2CCN(Cc3cn(-c4ccccc4)nn3)C2)c1 [Compound 124] | > 8 |
| O=S(=O)(N[C@@H]1CCN(Cc2ccc(-n3cccn3)cc2)C1)c1cccc(C(F)(F)F)c1 [Compound 35] | > 8 |
| O=S(=O)(N[C@@H]1CCN(Cc2ccc(-c3ccccc3)cc2)C1)c1cnc2ccsc2c1 [Compound 111] | > 8 |

test system: Streptococcus agalactiae; assay: MIC, 20-strain panel; assay type: cell-based; conditions: not given
Protocol: as §1, §2

| SMILES | MIC [µg/mL] |
| --- | --- |
| CSc1ccc(CN2CC[C@@H](NS(=O)(=O)c3cccc(C#N)c3)C2)cc1 [Compound 31] | > 8 |
| CSc1ccc(CN2CC[C@@H](NS(=O)(=O)c3cccc(C(F)(F)F)c3)C2)cc1 [Compound 86] | > 8 |
| N#Cc1cccc(S(=O)(=O)N[C@@H]2CCN(Cc3cn(-c4ccccc4)nn3)C2)c1 [Compound 124] | > 8 |
| O=S(=O)(N[C@@H]1CCN(Cc2ccc(-n3cccn3)cc2)C1)c1cccc(C(F)(F)F)c1 [Compound 35] | > 8 |
| O=S(=O)(N[C@@H]1CCN(Cc2ccc(-c3ccccc3)cc2)C1)c1cnc2ccsc2c1 [Compound 111] | > 8 |

test system: Klebsiella pneumoniae subsp. pneumoniae; assay: MIC, 20-strain panel; assay type: cell-based; conditions: E: Klebsiella pneumoniae subsp. pneumoniae
Protocol: as §1, §2

| SMILES | MIC [µg/mL] |
| --- | --- |
| CSc1ccc(CN2CC[C@@H](NS(=O)(=O)c3cccc(C#N)c3)C2)cc1 [Compound 31] | > 8 |
| CSc1ccc(CN2CC[C@@H](NS(=O)(=O)c3cccc(C(F)(F)F)c3)C2)cc1 [Compound 86] | > 8 |
| N#Cc1cccc(S(=O)(=O)N[C@@H]2CCN(Cc3cn(-c4ccccc4)nn3)C2)c1 [Compound 124] | > 8 |
| O=S(=O)(N[C@@H]1CCN(Cc2ccc(-n3cccn3)cc2)C1)c1cccc(C(F)(F)F)c1 [Compound 35] | > 8 |
| O=S(=O)(N[C@@H]1CCN(Cc2ccc(-c3ccccc3)cc2)C1)c1cnc2ccsc2c1 [Compound 111] | > 8 |

test system: E. coli JW5503 (deltolC); assay: MIC, 20-strain panel; assay type: cell-based; conditions: Escherichia coli, C: E. coli JW5503 (deltolC)
Protocol: as §1, §2

| SMILES | MIC [µg/mL] |
| --- | --- |
| CSc1ccc(CN2CC[C@@H](NS(=O)(=O)c3cccc(C#N)c3)C2)cc1 [Compound 31] | ~8 (≈ 20.6 µM) |
| CSc1ccc(CN2CC[C@@H](NS(=O)(=O)c3cccc(C(F)(F)F)c3)C2)cc1 [Compound 86] | 4 (≈ 9.29 µM) |
| N#Cc1cccc(S(=O)(=O)N[C@@H]2CCN(Cc3cn(-c4ccccc4)nn3)C2)c1 [Compound 124] | > 8 |
| O=S(=O)(N[C@@H]1CCN(Cc2ccc(-n3cccn3)cc2)C1)c1cccc(C(F)(F)F)c1 [Compound 35] | 1 (≈ 2.22 µM) |
| O=S(=O)(N[C@@H]1CCN(Cc2ccc(-c3ccccc3)cc2)C1)c1cnc2ccsc2c1 [Compound 111] | > 8 |

test system: Salmonella enterica subsp. enterica typhimurium; assay: MIC, 20-strain panel; assay type: cell-based; conditions: F: Salmonella enterica subsp. enterica Typhimurium
Protocol: as §1, §2

| SMILES | MIC [µg/mL] |
| --- | --- |
| CSc1ccc(CN2CC[C@@H](NS(=O)(=O)c3cccc(C#N)c3)C2)cc1 [Compound 31] | > 8 |
| CSc1ccc(CN2CC[C@@H](NS(=O)(=O)c3cccc(C(F)(F)F)c3)C2)cc1 [Compound 86] | > 8 |
| N#Cc1cccc(S(=O)(=O)N[C@@H]2CCN(Cc3cn(-c4ccccc4)nn3)C2)c1 [Compound 124] | > 8 |
| O=S(=O)(N[C@@H]1CCN(Cc2ccc(-n3cccn3)cc2)C1)c1cccc(C(F)(F)F)c1 [Compound 35] | > 8 |
| O=S(=O)(N[C@@H]1CCN(Cc2ccc(-c3ccccc3)cc2)C1)c1cnc2ccsc2c1 [Compound 111] | > 8 |

test system: E. coli MG1655; assay: MIC, 20-strain panel; assay type: cell-based; conditions: Escherichia coli, MG1655, A: E. coli MG1655; read-out: MIC
Protocol: as §1, §2

| SMILES | MIC [µg/mL] |
| --- | --- |
| CSc1ccc(CN2CC[C@@H](NS(=O)(=O)c3cccc(C#N)c3)C2)cc1 [Compound 31] | > 8 |
| CSc1ccc(CN2CC[C@@H](NS(=O)(=O)c3cccc(C(F)(F)F)c3)C2)cc1 [Compound 86] | > 8 |
| N#Cc1cccc(S(=O)(=O)N[C@@H]2CCN(Cc3cn(-c4ccccc4)nn3)C2)c1 [Compound 124] | > 8 |
| O=S(=O)(N[C@@H]1CCN(Cc2ccc(-n3cccn3)cc2)C1)c1cccc(C(F)(F)F)c1 [Compound 35] | > 8 |
| O=S(=O)(N[C@@H]1CCN(Cc2ccc(-c3ccccc3)cc2)C1)c1cnc2ccsc2c1 [Compound 111] | > 8 |
